System: 422866-222-R5-J1-PDC complex spheroid viability
Experiment: Anticancer human tumor 422866-222-R5-J1-PDC patient-derived pancreatic adenocarcinoma cell line growth inhibition [POLQ]
Conditions: for IC50: curve of first compound; for viability, T/C: stronger effect = lower value
In short: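 Growth inhibition in 3D: complex spheroids (tumor PDC, HUVEC, MSC) treated with POLQ inhibitor combinations; where Cmax unknown, highest tested concentration 10 microM, except SN-38 at 1 microM.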

[1] = second compound 0.0316 µM, first compound 0.00316 µM
[2] = second compound 0.0316 µM, first compound 0.01 µM
[3] = second compound 0.0316 µM, first compound 0.0316 µM
[4] = second compound 0.0316 µM, first compound 0.1 µM
[5] = second compound 0.1 µM, first compound 0.00316 µM
[6] = second compound 0.1 µM, first compound 0.01 µM
[7] = second compound 0.1 µM, first compound 0.0316 µM
[8] = second compound 0.1 µM, first compound 0.1 µM
[9] = second compound 0.316 µM, first compound 0.00316 µM
[10] = second compound 0.316 µM, first compound 0.01 µM
[11] = second compound 0.316 µM, first compound 0.0316 µM
[12] = second compound 0.316 µM, first compound 0.1 µM
[13] = second compound 1 µM, first compound 0.00316 µM
[14] = second compound 1 µM, first compound 0.01 µM
[15] = second compound 1 µM, first compound 0.0316 µM
[16] = second compound 1 µM, first compound 0.1 µM
[17] = second compound 3.16 µM, first compound 0.00316 µM
[18] = second compound 3.16 µM, first compound 0.01 µM
[19] = second compound 3.16 µM, first compound 0.0316 µM
[20] = second compound 3.16 µM, first compound 0.1 µM
[21] = second compound 10 µM, first compound 0.00316 µM
[22] = second compound 10 µM, first compound 0.01 µM
[23] = second compound 10 µM, first compound 0.0316 µM
[24] = second compound 10 µM, first compound 0.1 µM
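Further: spheroids exposed to compounds for one week before readout.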
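Wherever viability, T/C is given: percent of DMSO vehicle wells luminescence so 100% = untreated viability.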

SMILES: CC[C@@]1(O)C(=O)OCc2c1cc1n(c2=O)Cc2cc3c(CN(C)C)c(O)ccc3nc2-1 + COC1C(OC(N)=O)C(O)C(Oc2ccc3c(O)c(NC(=O)c4ccc(O)c(CC=C(C)C)c4)c(=O)oc3c2C)OC1(C)C
- IC50 (second compound 0.0316 µM): 22.9 nM
- IC50 (second compound 0.1 µM): 21.6 nM
- IC50 (second compound 0.316 µM): 23.3 nM
- IC50 (second compound 1 µM): 20.7 nM
- IC50 (second compound 3.16 µM): 26 nM
- IC50 (second compound 10 µM): 22.4 nM
- viability, T/C (second compound 0.0316 µM, first compound 0.000316 µM): 105%
- viability, T/C (second compound 0.0316 µM, first compound 0.001 µM): 92.5%
- viability, T/C [1]: 96.7%
- viability, T/C [2]: 77%
- viability, T/C [3]: 39.2%
- viability, T/C [4]: 32.7%
- viability, T/C (second compound 0.1 µM, first compound 0.000316 µM): 92.1%
- viability, T/C (second compound 0.1 µM, first compound 0.001 µM): 96.3%
- viability, T/C [5]: 99.4%
- viability, T/C [6]: 77.8%
- viability, T/C [7]: 32.3%
- viability, T/C [8]: 40.1%
- viability, T/C (second compound 0.316 µM, first compound 0.000316 µM): 113%
- viability, T/C (second compound 0.316 µM, first compound 0.001 µM): 97.9%
- viability, T/C [9]: 85.4%
- viability, T/C [10]: 69.1%
- viability, T/C [11]: 37.3%
- viability, T/C [12]: 39.4%
- viability, T/C (second compound 1 µM, first compound 0.000316 µM): 106%
- viability, T/C (second compound 1 µM, first compound 0.001 µM): 92.3%
- viability, T/C [13]: 92%
- viability, T/C [14]: 61.8%
- viability, T/C [15]: 43.1%
- viability, T/C [16]: 35.6%
- viability, T/C (second compound 3.16 µM, first compound 0.000316 µM): 96.4%
- viability, T/C (second compound 3.16 µM, first compound 0.001 µM): 105%
- viability, T/C [17]: 90.9%
- viability, T/C [18]: 71.5%
- viability, T/C [19]: 45.3%
- viability, T/C [20]: 37.8%
- viability, T/C (second compound 10 µM, first compound 0.000316 µM): 93.8%
- viability, T/C (second compound 10 µM, first compound 0.001 µM): 95.2%
- viability, T/C [21]: 83.2%
- viability, T/C [22]: 71.6%
- viability, T/C [23]: 39.8%
- viability, T/C [24]: 30.8%

SMILES: CCc1c2c(nc3ccc(O)cc13)-c1cc3c(c(=O)n1C2)COC(=O)[C@]3(O)CC + COC1C(OC(N)=O)C(O)C(Oc2ccc3c(O)c(NC(=O)c4ccc(O)c(CC=C(C)C)c4)c(=O)oc3c2C)OC1(C)C
- IC50 (second compound 0.0316 µM): < 3.16 nM
- IC50 (second compound 0.1 µM): < 3.16 nM
- IC50 (second compound 0.316 µM): < 3.16 nM
- IC50 (second compound 1 µM): < 3.16 nM
- IC50 (second compound 3.16 µM): < 3.16 nM
- IC50 (second compound 10 µM): < 3.16 nM
- viability, T/C [1]: 44.1%
- viability, T/C [2]: 34.4%
- viability, T/C [3]: 33.4%
- viability, T/C [4]: 30.8%
- viability, T/C (second compound 0.0316 µM, first compound 0.316 µM): 28.7%
- viability, T/C (second compound 0.0316 µM, first compound 1 µM): 19.7%
- viability, T/C [5]: 41.3%
- viability, T/C [6]: 34.8%
- viability, T/C [7]: 32%
- viability, T/C [8]: 30.6%
- viability, T/C (second compound 0.1 µM, first compound 0.316 µM): 34.6%
- viability, T/C (second compound 0.1 µM, first compound 1 µM): 18.6%
- viability, T/C [9]: 41.1%
- viability, T/C [10]: 35.9%
- viability, T/C [11]: 30.9%
- viability, T/C [12]: 29.6%
- viability, T/C (second compound 0.316 µM, first compound 0.316 µM): 32.9%
- viability, T/C (second compound 0.316 µM, first compound 1 µM): 16.7%
- viability, T/C [13]: 41.8%
- viability, T/C [14]: 30.9%
- viability, T/C [15]: 30.5%
- viability, T/C [16]: 33.8%
- viability, T/C (second compound 1 µM, first compound 0.316 µM): 32.6%
- viability, T/C (second compound 1 µM, first compound 1 µM): 19%
- viability, T/C [17]: 41%
- viability, T/C [18]: 34.8%
- viability, T/C [19]: 36%
- viability, T/C [20]: 32.7%
- viability, T/C (second compound 3.16 µM, first compound 0.316 µM): 34.3%
- viability, T/C (second compound 3.16 µM, first compound 1 µM): 22.5%
- viability, T/C [21]: 39.4%
- viability, T/C [22]: 34.2%
- viability, T/C [23]: 31.6%
- viability, T/C [24]: 32.1%
- viability, T/C (second compound 10 µM, first compound 0.316 µM): 31.1%
- viability, T/C (second compound 10 µM, first compound 1 µM): 19.9%

From PubChem BioAssay AID1963844 (Molecular Pharmacology Branch, DTP, NCI, 2024)
